Assays:
[1] = tested on: reactive oxygen species (ROS); test: Zebrafish oxidative aging model (menadione), ROS content; type: in vivo; details: I-8 at 22.2 µg/mL, 22 hrs, 4 µM menadione; compared with the modeling group, statistical significance
Description: (§1) Experimental animal: Healthy wild-type AB strain zebrafish at 48 hpf (hours post-fertilization)
(§2) Healthy AB strain zebrafish were taken as experimental animal. A zebrafish oxidative aging model was constructed using chemical mutagenesis with 4 µM menadione as the modeling drug. Fucoxanthin was used as a positive control compound. After treating the zebrafish oxidative aging model with different concentrations of I-8 for 22 hrs, changes in the reactive oxygen species (ROS) content, β-galactosidase activity, and the expression of three antioxidant and anti-aging related genes (Cu/Zn-sod, Mn-sod, and ampk) were respectively detected and statistically analyzed.
(§3) During the experiment, the modeling drug, positive compound, and I-8 were dispersed together in the culture water of zebrafish. […] Cell ROX™ Deep Red fluorescent probes and β-galactosidase staining kits were used to specifically label ROS and β-galactosidase in the fish, respectively, and the staining intensity was quantified using Image-Pro Plus software. After extracting RNA from the whole fish, the expression changes of three genes (Cu/Zn-sod, Mn-sod, and ampk) in the fish were detected at the mRNA level using Quantitative Real-time PCR (RT-qPCR). The data were statistically analyzed using GraphPad software.

ampk = test: Zebrafish oxidative aging model (menadione), ampk gene expression by RT-qPCR; type: in vivo; details: I-8 at 2.5 µg/mL, 22 hrs, 4 µM menadione; compared to the modeling group, statistical significance
Description: as §1, §2, §3

TNF-α = TNF-α gene expression in HaCaT after UVB radiation (q-PCR); type: cell-based, human; details: UVB 80 mJ/cm^2, 24 hrs, dose-dependent
From the text: (§4) In the following Test Examples 6-1 and 6-2, using immortalized keratinocytes (HaCaT) and UVB to establish a model, after the compound to be test was applied to HaCaT, the expression levels of TNF-α, IL-8, IL-1β and EP2 were detected; using immortalized keratinocytes (HaCaT) and capsaicin to establish a model, after the compound to be test was applied to HaCaT, the expression level of TRPV1 was detected, so as to evaluate the soothing effect of the test substance from multiple dimensions.
(§5) • 1) Cell inoculation: HaCaT cells were inoculated into a 6-well plate at 6×10^5/well, cultured in an incubator (37°C, 5% CO2) for 12 hrs, and a normal control group (0 mJ/cm^2 + vehicle control), a model control group (80 mJ/cm^2 + vehicle control), a low concentration group (80 mJ/cm^2 + low concentration compound), a medium concentration group (80 mJ/cm^2 + medium concentration compound), and a high concentration group (80 mJ/cm^2 + high concentration compounds) were respectively provided. • 2) UVB modeling: The HaCaT cells were washed 3 times with D'Hanks before UVB radiation, 1 mL of D'Hanks was added into the wells, to make the cells to be immersed, and the control group was coated with tinfoil and placed in the dark. […]

IL-8 = IL-8 gene expression in HaCaT after UVB radiation (q-PCR); type: cell-based, human; details: UVB 80 mJ/cm^2, 24 hrs, dose-dependent
From the text: as §4, §5

EP2 = EP2 gene expression in HaCaT after UVB radiation (q-PCR); type: cell-based, human; details: UVB 80 mJ/cm^2, 24 hrs, dose-dependent
From the text: as §4, §5

COL3A1 = test: Collagen III gene expression in HaCaT human immortalized keratinocytes; type: cell-based; details: 24 hrs, dose-dependent
From the text: (§6) Skin fragility is partly attributed to changes in hemidesmosomes and the expression downregulation of various collagen proteins (Collagen I, III, IV, VII) or laminins (such as LN-5) at the dermal-epidermal junction. LN-5 has been proven to be a component of anchoring fibers in the basement membrane of the skin, cornea, conjunctiva, and other tissues. LN-5 participates in cell-cell interactions through the mediation of integrins and proteoglycans, thereby playing a crucial role in cell adhesion, growth, migration, and differentiation. The appearance of wrinkles is closely related to the normal synthesis and expression of collagen and laminins. Therefore, the increase of the above collagen content and LN-5 can achieve a certain role in resisting wrinkles, and plays an important role in the aging process of the skin. Therefore, the anti-wrinkle effect of the compound to be tested was evaluated by detecting the level of Collage I protein of […] by ELISA, and detecting the transcription levels of epidermal cells (keratinocytes) III, IV, VII and LN -5 by Real-Time PCR. The following Test Examples 8-1 and 8-2 evaluated the anti-wrinkle efficacy of compounds using HaCaT human immortalized keratinocytes and HSF human skin fibroblasts. […]

COL4A1 = test: Collagen IV gene expression in HaCaT human immortalized keratinocytes; type: cell-based; details: 24 hrs, dose-dependent
From the text: as §6

COL7A1 = test: Collagen VII gene expression in HaCaT human immortalized keratinocytes; type: cell-based; details: 24 hrs, dose-dependent
From the text: as §6

LAMA5 = test: LN-5 gene expression in HaCaT human immortalized keratinocytes; type: cell-based; details: 24 hrs, dose-dependent
From the text: as §6

**Q.** Which results are given for `O=S1(=O)Oc2cc(O)ccc2-c2ccc(O)cc21` [Compound I-8]?
**A.** ROS content [1]: downregulated; expression of the ampk gene (ampk): upregulated; expression level of TNF-α (TNF-α): downregulating; expression level of IL-8 (IL-8): downregulating; expression level of EP2 (EP2): downregulating; COL341 gene expression (COL3A1): upregulate; COL4A1 gene expression (COL4A1): upregulate; COL7A1 gene expression (COL7A1): upregulate; LAMA5 gene expression (LAMA5): upregulate

Reference: patent EP4803511A1, “SMALL MOLECULE COMPOUND HAVING SULFONIC ACID OR SULFINIC ACID LACTONE STRUCTURE, COMPOSITION AND USE THEREOF” (Hangzhou Phecdamed Co., Ltd., priority 2023, dated 2025)
